According to US20210145834A1, “COMBINATION OF POZIOTINIB WITH CYTOTOXIC AGENT AND/OR OTHER MOLECULARLY TARGETED AGENT AND USE THEREOF” (Spectrum Pharmaceuticals, Inc., priority 2018, published 2021):
Several values for one entry are separate records, joined by “and”; a condition that tells them apart may be missing. Equal entries are not always repeated. Where two headings read alike, the source gives them in different places. Blank lines part the entries; values can stand above or below the compound they belong to.

Experiments:
Assay type in all cases: cell-based
MDA-MB-453 cells = assay: Cell growth inhibition assay (sulforhodamine B), single agents and combinations; settings: MDA-MB-453, single agent, 3 days
Protocol: (§1) The effect of the inventive compositions on the cancer cell growth inhibition was conducted in EGFR-overexpressed or -mutated cancer cell lines.
(§2) All cells except for H1975 were cultured for 72 hours prior to cell plating. Cells were seeded in a 96-well plate at 4 to 15×10^3 cells/well. Approximately 24 hours after plating, cells were exposed to ten, two-fold or three fold serial dilutions of test individual compounds or the combination of the two test compounds at a constant molar to molar ratio or non-constant ratio of two agents. Cells were incubated in the presence of compounds for 3 days except for H1975, which was for 2 days at 3×10^3 cells/well.
(§3) Cell growth inhibition based on measurement of cellular protein content is determined by sulforhodamine B colorimetric assay according to the “Nat Protoc. […] The absorbance was read on a SpectraMax™ plate reader at 540 nm. For H1975 cells, cell growth (%) is determined by adding CellTiter™ 96 Aqueous One Solution Cell Proliferation Assay reagent (Promega) according to the manufacturer's protocol.
(§4) Inhibition of cell growth was estimated after treatment with test agent or combination of test agents for incubating time (2-3 days) and comparing the signal to cells treated with vehicle (DMSO). Cell growth (%) was calculated by following equations.
(§5) Percentage growth inhibition was calculated using:
(§6) a. [(Ti−Tz)/(C−Tz)]×100, for concentrations for which Ti=Tz
(§7) b. [(Ti−Tz)/Tz]×100, for concentrations for which Ti<Tz
(§8) Each T value means an absorbance. Tz: Time zero (cell density group before the treatment of test group), C:100% control growth […] test agent, Ti: Test growth in the presence of drug at the concentration levels.
(§9) Combination effects on potency were evaluated by combination Index using Calcusyn™ Software. The range of Combination Index (CI) for two compounds is described in Table 2.
(§10) Fifty percent growth inhibition values (GI50) for combinations of poziotinib with partner drugs were calculated and the single dosing growth inhibition (%) at the dose of combo GI50 were also calculated by using GraphPad Prism™ v6. The combination Index (CI) at the dose of combination GI50 was evaluated by using CalcuSyn™ (Biosoft).

BT-474 cells = assay: as above; settings: BT-474, single agent, 3 days
Protocol: as §1, §2, §3, §4, §5, §6, §7, §8, §9, §10

HCC827 cells = assay: as above; settings: HCC827, single agent, 3 days
Protocol: as §1, §2, §3, §4, §5, §6, §7, §8, §9, §10

TE-4 cells = assay: as above; settings: 72 h; TE-4, single agent, 3 days
Protocol: The effect of the inventive compositions on the cancer cell growth inhibition was conducted in EGFR-overexpressed or -mutated cancer cell lines. […] All cells except for H1975 were cultured for 72 hours prior to cell plating. […] Approximately 24 hours after plating, cells were exposed to ten, two-fold or three fold serial dilutions of test individual compounds or the combination of the two test compounds at a constant molar to molar ratio or non-constant ratio of two agents. Cells were incubated in the presence of compounds for 3 days except for H1975, which was for 2 days at 3×10^3 cells/well. Cell growth inhibition based on measurement of cellular protein content is determined by sulforhodamine B colorimetric assay according to the “Nat Protoc. […] The absorbance was read on a SpectraMax™ plate reader at 540 nm. For H1975 cells, cell growth (%) is determined by adding CellTiter™ 96 Aqueous One Solution Cell Proliferation Assay reagent (Promega) according to the manufacturer's protocol. […] Cell growth (%) was calculated by following equations. Percentage growth inhibition was calculated using: a. […] [(Ti−Tz)/Tz]×100, for concentrations for which Ti<Tz Each T value means an absorbance. […] Combination effects on potency were evaluated by combination Index using Calcusyn™ Software. […] The combination Index (CI) at the dose of combination GI50 was evaluated by using CalcuSyn™ (Biosoft).

H1975 cells = assay: Cell growth inhibition assay (CellTiter 96 Aqueous One), single agents and combinations; settings: H1975, single agent, 2 days
Protocol: as §1, §2, §3, §4, §5, §6, §7, §8, §9, §10

Calu-3 cell line = assay: Synergy effect study on cell proliferation (Example 2), single agents and 6x6 combo matrix; settings: Calu-3, single compound; for Max inh. / IC50: 3 days
Protocol: as §2, with “Cells” for “All cells except for H1975 were cultured for 72 hours prior to cell plating. Cells”, “days.” for “days except for H1975, which was for 2 days at 3×10^3 cells/well.”
as §4
(§11) Percentage growth inhibition was calculated using both Bliss independence model and Lowewe additivity model. A score higher than 5 indicates synergy and a score less that −5 indicates antagonism.

BT-474 cell line = assay: as above; settings: BT-474, single compound; for IC50 / Max inh.: 3 days
Protocol: as §2, with “Cells” for “All cells except for H1975 were cultured for 72 hours prior to cell plating. Cells”, “days.” for “days except for H1975, which was for 2 days at 3×10^3 cells/well.”
as §4, §11

SK-BR-3 cell line = assay: as above; settings: SK-BR-3, single compound, 3 days
Protocol: In this example, effects of direct cell killing of selected cancer cell line Calu-3, BT-474 and SK-BR-3 treated with Poziotinib alone or in combination with other agents were assessed.
as §2, with “cells” for “cells except for H1975”, “in the media listed in the temperature of 37° C., 5% CO2 and 95% humidity.” for “for 72 hours prior to cell plating.”, “days.” for “days except for H1975, which was for 2 days at 3×10^3 cells/well.”
as §4, §11
Calu-3, BT-474 or SK-BR-3 cell lines were tested with Poziotinib combined with a second compound respectively in a 6×6 combo matrix for 3 days at 37° C., 5% CO2 and 95% humidity as shown in combinations shown in the tables herein below: […]

SK-BR-3 cells = assay: Cell growth inhibition assay (sulforhodamine B), single agents and combinations; settings: Homo sapiens, SK-BR-3, 72 h; SK-BR3, single agent, 3 days
Protocol: as §1, §2, §3, §4, §5, §6, §7, §8, §9, §10

MDA-MB-468 cells = assay: as above; settings: Homo sapiens, 72 h; MDA-MB-468, single agent, 3 days
Protocol: as §1, §2, §3, §4, §5, §6, §7, §8, §9, §10

MDA-MB-361 cells = assay: as above; settings: Homo sapiens, 72 h; MDA-MB-361, single agent, 3 days
Protocol: as §1, §2, §3, §4, §5, §6, §7, §8, §9, §10

MCF-7 cells = assay: as above; settings: Homo sapiens, MCF7, 72 h; MCF-7, single agent, 3 days
Protocol: as §1, §2, §3, §4, §5, §6, §7, §8, §9, §10

N87 cells = assay: as above; settings: 72 h; N87, single agent, 3 days
Protocol: as §1, §2, §3, §4, §5, §6, §7, §8, §9, §10

[1] = Homo sapiens, Calu-3, 72 h, read-out: IC50

Compound: O=c1[nH]cc(F)c(=O)[nH]1 [5-FU, Fluorouracil]
GI50 (MDA-MB-453 cells; Homo sapiens, MDA-MB-453, 72 h): 385 nM
GI50 (BT-474 cells; Homo sapiens, BT-474, 72 h): 9000 nM
GI50 (HCC827 cells; Homo sapiens, 72 h): 980 nM
GI50 (TE-4 cells): 7900 nM
GI50 (H1975 cells; Homo sapiens, NCI-H1975, 48 h): > 10000 nM

Compound: N.N.[Cl][Pt][Cl] [Cisplatin]
GI50 (MDA-MB-453 cells): > 10000 nM
GI50 (BT-474 cells): > 20000 nM
GI50 (HCC827 cells): > 20000 nM
Max inh. (Calu-3 cell line): 59.75% and 69.39% and 68.77%
IC50 (BT-474 cell line): > 100000 nM
Max inh. (BT-474 cell line): 41.78% and 37.43%
IC50 (SK-BR-3 cell line): 549 nM
Max inh. (SK-BR-3 cell line): 98.11%
GI50 (H1975 cells): > 10000 nM

Compound: N#Cc1ccc(C(c2ccc(C#N)cc2)n2cncn2)cc1 [Letrozole]
cell inhibitory activity (in words) (BT-474 cell line): weak or no response
Max inh. (BT-474 cell line): −15.80%
IC50 (BT-474 cell line; Homo sapiens, 72 h): > 10000 nM

Compound: CC(=O)O[C@H]1C(=O)[C@@]2(C)[C@H]([C@H](OC(=O)c3ccccc3)[C@]3(O)C[C@H](OC(=O)[C@H](O)[C@@H](NC(=O)c4ccccc4)c4ccccc4)C(C)=C1C3(C)C)[C@]1(OC(C)=O)CO[C@@H]1C[C@@H]2O [Paclitaxel]
GI50 (MDA-MB-453 cells; Homo sapiens, MDA-MB-453, 72 h): 3 nM
GI50 (BT-474 cells; Homo sapiens, BT-474, 72 h): 1 nM
GI50 (HCC827 cells; Homo sapiens, 72 h): 3.4 nM
GI50 (H1975 cells; Homo sapiens, NCI-H1975, 48 h): 21.6 nM

Compound: CC(=O)c1c(C)c2cnc(Nc3ccc(N4CCNCC4)cn3)nc2n(C2CCCC2)c1=O [Palbociclib]
Max inh. (BT-474 cell line): 12.13%
IC50 (BT-474 cell line; Homo sapiens, 72 h): > 5000 nM

Compound: ado-trastuzumab emtansine [T-DM1]
IC50 (Calu-3 cell line): 90.449 µg/mL
Max inh. (Calu-3 cell line): 55.24%
Max inh. (SK-BR-3 cell line): 85.37%

The next lines start with results.

IC50 (Calu-3 cell line; [1]): > 10000 nM
IC50 (BT-474 cell line; Homo sapiens, 72 h): > 10000 nM
Compound: Nc1nc2[nH]cc(CCc3ccc(C(=O)N[C@@H](CCC(=O)O)C(=O)O)cc3)c2c(=O)[nH]1 [Pemetrexed]
cell inhibitory activity (in words) (Calu-3 cell line): not effective
Max inh. (Calu-3 cell line): 49.78%
cell inhibitory activity (in words) (BT-474 cell line): not effective
Max inh. (BT-474 cell line): 1.78%

GI50 (SK-BR-3 cells): 0.9 nM
GI50 (MDA-MB-453 cells; Homo sapiens, MDA-MB-453, 72 h): 2.5 nM
GI50 (BT-474 cells; Homo sapiens, BT-474, 72 h): 0.5 nM
GI50 (MDA-MB-468 cells): 640 nM
GI50 (MDA-MB-361 cells): 21 nM
GI50 (MCF-7 cells): 2740 nM
GI50 (HCC827 cells; Homo sapiens, 72 h): 0.4 nM
IC50 (BT-474 cell line; listed as Pozotinb): < 1.5 nM
IC50 (BT-474 cell line; Homo sapiens, 72 h): < 1.5 nM
IC50 (SK-BR-3 cell line; Homo sapiens, 72 h): 1 nM
GI50 (H1975 cells): 1.3 nM
Compound: C=CC(=O)N1CCC(Oc2cc3c(Nc4ccc(Cl)c(Cl)c4F)ncnc3cc2OC)CC1 [Poziotinib, 1-[4-[4-(3,4-dichloro-2-fluoroanilino)-7-methoxyquinazolin-6-yl]oxypiperidin-1-yl]prop-2-en-1-one]
GI50 (N87 cells): 0.1 nM
GI50 (TE-4 cells): 0.8 nM
Max inh. (Calu-3 cell line): 94.51% and 81.67%
Max inh. (Calu-3 cell line; listed as Pozotinb): 89.22%
Max inh. (BT-474 cell line): 71.74%
Max inh. (BT-474 cell line; listed as Pozotinb): 68.16%
Max inh. (SK-BR-3 cell line): 57.81%

IC50 (Calu-3 cell line; [1]): 4480 nM
Compound: CNC(=O)c1cc(Oc2ccc(NC(=O)Nc3ccc(Cl)c(C(F)(F)F)c3)cc2)ccn1 [Sorafenib]
Max inh. (Calu-3 cell line): 64.29%

IC50 (Calu-3 cell line; [1]): 167 nM
Compound: CO[C@H]1C[C@@H]2CC[C@@H](C)[C@@](O)(O2)C(=O)C(=O)N2CCCC[C@H]2C(=O)O[C@H]([C@H](C)C[C@@H]2CC[C@@H](OC(=O)C(C)(CO)CO)[C@H](OC)C2)CC(=O)[C@H](C)/C=C(\C)[C@@H](O)[C@@H](OC)C(=O)[C@H](C)C[C@H](C)/C=C/C=C/C=C/1C [Temsirolimus]
Max inh. (Calu-3 cell line): 58.19%

IC50 (Calu-3 cell line; [1]): 42 nM
IC50 (BT-474 cell line; Homo sapiens, 72 h): > 10000 nM
Compound: CC(=O)Nc1cccc(-n2c(=O)n(C3CC3)c(=O)c3c(Nc4ccc(I)cc4F)n(C)c(=O)c(C)c32)c1 [Trametinib]
Max inh. (Calu-3 cell line): 89.69%
Max inh. (BT-474 cell line): 15.91%

GI50 (SK-BR-3 cells): 1.7 nM
GI50 (BT-474 cells; Homo sapiens, BT-474, 72 h): 2.3 nM
GI50 (MDA-MB-468 cells): 0.3 nM
GI50 (MDA-MB-361 cells): 1.1 nM
GI50 (MCF-7 cells): 3.6 nM
Compound: CCC1=C[C@@H]2CN(C1)Cc1c([nH]c3ccccc13)[C@@](C(=O)OC)(c1cc3c(cc1OC)N(C)[C@H]1[C@@](O)(C(=O)OC)[C@H](OC(C)=O)[C@]4(CC)C=CCN5CC[C@]31[C@@H]54)C2 [Vinorelbine]
